Broadly, the chromatographic logP is a lipophilicity value derived from retention on a column. A high value points to higher lipophilicity.

This note sets out measurements from US8981111B2 (priority 2008, dated 2015).

One data set in a line: log P (HPLC/MS data of the preparation examples). As to conditions: HCOOH.
As for “N-(6-{[({(3-bromo-4-methoxyphenyl)[3-chloro-5-(trifluoromethyl)pyridin-2-yl]methylene}amino)oxy]methyl}pyridin-2-yl)-3-methylbutanamide [Example 444]”, the “log P(HCOOH)” value was 5.03. As to “N-{2-[({[(1-methyl-1H-imidazol-2-yl)(phenyl)methylene]amino}-oxy)methyl]pyrimidin-4-yl}cyclopropanecarboxamide [Example 193]”, the “log P(HCOOH)” value turned out to be 1.50. On to “pentyl{2-[({[(1-methyl-1H-imidazol-2-yl)(phenyl)methylene]amino}oxy)-methyl]pyrimidin-4-yl}carbamate [Example 61]”, for which the “log P(HCOOH)” value is recorded as 2.28.

Consider “pentyl{2-[({[(1-methyl-1H-imidazol-5-yl)(phenyl)methylene]amino}oxy)-methyl]pyrimidin-4-yl}carbamate [Example 139]”, for which the “log P(HCOOH)” value came to 2.66.

The data set is the same for the next values; noted with them: HCOOH (formic acid).
Regarding `Cn1cncc1C(=NOCc1cccc(N)n1)c1ccsc1` [Example 493, 6-[({[(1-methyl-1H-imidazol-5-yl)(3-thienyl)methylene]amino}oxy)methyl]pyridin-2-amine], the chromatographic logP came out at 0.39. `Cn1cncc1C(=NOCc1cccc(N2C(=O)c3ccccc3C2=O)n1)c1cccs1` [Example 494, 2-{6-[({[(1-methyl-1H-imidazol-5-yl)(2-thienyl)methylene]amino}-oxy)methyl]pyridin-2-yl}-1H-isoindole-1,3(2H)-dione]: the chromatographic logP came out at 1.66. For `Cn1cncc1C(=NOCc1csc(N)n1)c1cccs1` [Example 495, 4-[({[(1-methyl-1H-imidazol-5-yl)(2-thienyl)methylene]amino}oxy)methyl]-1,3-thiazol-2-amine], the chromatographic logP turned out to be 0.22. Regarding `Cn1cncc1C(=NOCc1csc(N)n1)c1ccsc1` [Example 496, 4-[({[(1-methyl-1H-imidazol-5-yl)(3-thienyl)methylene]amino}oxy)methyl]-1,3-thiazol-2-amine], the chromatographic logP turned out to be 0.45. On the same count and under the same terms, to `Cn1ccnc1C(=NO)c1ccccc1` [N-hydroxy-1-(1-methyl-1H-imidazol-2-yl)-1-phenylmethanimine] belongs 0.24. As to `Cn1cncc1C(=NO)c1cccs1` [N-hydroxy-1-(1-methyl-1H-imidazol-5-yl)-1-(2-thienyl)methanimine], the chromatographic logP was determined as 0.45. The compound `Cn1cncc1C(=NO)c1ccsc1` [N-hydroxy-1-(1-methyl-1H-imidazol-5-yl)-1-(3-thienyl)methanimine] gave a chromatographic logP of 0.21. Compound `Cn1cncc1C(=NO)c1ccccc1` [N-hydroxy-1-(1-methyl-1H-imidazol-5-yl)-1-phenylmethanimine] gave a chromatographic logP of 0.41. `Cc1nocc1C(=NO)c1cccs1` [N-hydroxy-1-(3-methyl-1,2-oxazol-4-yl)-1-(2-thienyl)methanimine]: the chromatographic logP was 1.75. On the same count and under the same terms, to `CON(C)C(=O)c1cccs1` [N-methoxy-N-methylthiophene-2-carboxamide] belongs 1.44; to `CON(C)C(=O)c1ccsc1` [N-methoxy-N-methylthiophene-3-carboxamide], 1.3.

The data set is the same for the next values; noted with them: HPLC (LC-MS) method [b]: pH 2.7, 0.1% formic acid in water and acetonitrile, linear gradient 10% to 95% acetonitrile; EEC directive 79/831 Annex V.A8.
Consider `CCCCCC(=O)Nc1nc(CON=C(c2ncc(C(F)(F)F)cc2Cl)c2ncnn2C)cs1` [Example 479], for which the log p is 3.6^[b]. `CCCCCOC(=O)Nc1nc(CON=C(c2ncc(C(F)(F)F)cc2Cl)c2ncnn2C)cs1` [Example 480]: the log p is 3.94^[b]. Consider `Cn1ncnc1C(=NOCc1csc(NC(=O)C(C)(C)C)n1)c1ncc(C(F)(F)F)cc1Cl` [Example 481], for which the log p is 3.27^[b]. Regarding `Cn1ncnc1C(=NOCc1csc(NC(=O)Cc2ccccc2)n1)c1ncc(C(F)(F)F)cc1Cl` [Example 482], the log p is 3.27^[b].

On to `Cn1ncnc1C(=NOCc1csc(NC(=O)CCc2ccccc2)n1)c1ncc(C(F)(F)F)cc1Cl` [Example 483], for which the log p is 3.51^[b]. With `CC(C)CC(=O)Nc1nc(CON=C(c2ncc(C(F)(F)F)cc2Cl)c2ncnn2C)cs1` [Example 484], the log p was 3.19^[b]. For `Cc1cccnc1C(=NOCc1csc(N)n1)c1cc(C(F)(F)F)ccn1` [Example 486], the log p was 1.57^[b]. As to `Cc1cccnc1C(=NOCc1csc(NC(=O)C(C)(C)C)n1)c1cc(C(F)(F)F)ccn1` [Example 487], the log p was 3.44^[b]. On to `Cc1cccnc1C(=NOCc1csc(NC(=O)CC(C)C)n1)c1cc(C(F)(F)F)ccn1` [Example 488], for which the log p was 3.31^[b]. In the case of `CCCCCOC(=O)Nc1nc(CON=C(c2cc(C(F)(F)F)ccn2)c2ncccc2C)cs1` [Example 489], the log p was 4.13^[b]. As for `CCCCCC(=O)Nc1nc(CON=C(c2cc(C(F)(F)F)ccn2)c2ncccc2C)cs1` [Example 490], the log p was 3.76^[b]. Same read-out and setting: the same measure for “N-(6-{[({(3-bromo-4-methoxyphenyl)[3-chloro-5-(trifluoromethyl)pyridin-2-yl]methylene}amino)oxy]methyl}pyridin-2-yl)-3-methylbutanamide [Example 444]”: 1.69^[b].

Staying with this data set, now noted: HPLC method [a]: pH 2.3, 0.1% phosphoric acid and acetonitrile as eluent; EEC directive 79/831 Annex V.A8.
As to `COC(=O)c1ccc(C(F)(F)F)nc1CON=C(c1ccccn1)c1ccccn1` [Example 485], the log p is 2.48^[a].

The same data set, now with this note: LC-MS, method [b]: pH 2.7 with 0.1% formic acid in water and acetonitrile, linear gradient 10% to 95% acetonitrile.
Regarding “N-(cyclopropylcarbonyl)-N-(2-{[({[2-(cyclopropylcarbonyl)-1-methyl-1H-imidazol-5-yl](phenyl)methylene}amino)oxy]methyl}pyrimidin-4-yl)cyclopropanecarboxamide [Example 312]”, the log p is 2.22^[b]. In the case of “pentyl{2-[({[(1-methyl-1H-imidazol-2-yl)(phenyl)methylene]amino}oxy)-methyl]pyrimidin-4-yl}carbamate [Example 61]”, the log p is 1.92^[b].

Still in this data set, the particulars now being: method [b]: LC-MS at pH 2.7, 0.1% formic acid in water / acetonitrile, linear gradient 10% to 95% acetonitrile.
As for “N-{2-[({[(1-methyl-1H-imidazol-2-yl)(phenyl)methylene]amino}-oxy)methyl]pyrimidin-4-yl}cyclopropanecarboxamide [Example 193]”, the log p was 1.54^[b]. Regarding “pentyl{2-[({[(1-methyl-1H-imidazol-5-yl)(phenyl)methylene]amino}oxy)-methyl]pyrimidin-4-yl}carbamate [Example 139]”, the log p was 3.19^[b].
